Entries after “also recorded” stand apart in the source; their conditions may differ.
Assays:
[1] = system: Isogenic glioma (Ln 229) cells, MGMT−/MMR−; assay: Clonogenic Survival Assay (FIG. 9); type: cell-based, human; conditions: identical concentrations of test compound
Experimental: Clonogenic Survival Assay (FIG. 9): Isogenic glioma (Ln 229) cells were pretreated with the test drug in culture for 48-72 hours at the specified dilutions. Cells were then transferred in media without drug to 6-well plates in triplicate at 3-fold dilutions ranging from 9,000 to 37 cells per well. After 14 days, plates were washed with PBS and stained with crystal violet. Colonies were counted by hand. Counts were normalized to plating efficiency of the corresponding treatment condition.

[2] = system: genomic DNA of LN229 MGMT−/MMR+ cells; assay: Genomic DNA denaturing gel electrophoresis; type: cell-based, human; conditions: 200 μM, 24 h
Experimental: Genomic DNA Denaturing Gel Electrophoresis. Cells were trypsinized, washed with 1×PBS, and stored at −80° C. prior to processing. Genomic DNA was extracted with the DNeasy Blood & Tissue Kit (Qiagen) per kit protocol. A 0.7% agarose gel was prepared in 100 mM NaCl-2 mM EDTA (pH 8) and soaked in 40 mM NaOH-1 mM EDTA running buffer for 2 h. Genomic DNA (400 ng/well) was then loaded in 1× BlueJuice loading buffer (Invitrogen) and subjected to electrophoresis at 2 V/cm for 30 min, followed by 3 V/cm for 2 h. The gel was neutralized in 150 mM NaCl-100 mM Tris (pH 7.4) for 30 min, twice, and then stained with 1× SYBR Gold in 150 mM NaCl-100 mM Tris (pH 7.4) for 90 min. Imaging was performed on a ChemiDoc XRS+ Molecular Imager (Bio-Rad).

[3] = system: LN229 MGMT+/−, MMR+/− cells; assay: Cell cycle analysis; type: cell-based, human; conditions: 20 μM, 24 to 48 h; cell status given in the value
Experimental: Cell Cycle Analysis. Cell cycle analysis was performed using integrated Hoechst nucleic acid dye fluorescence. Briefly, integrated Hoechst fluorescence intensity was log 2 transformed and histograms from DMSO-treated cells were used to identify the centers of the 2N and 4N DNA peaks. These values were used to normalize the 2N DNA peak to 1 and the 4N DNA peak to 2. Cells were then classified by normalized log 2 DNA content as GI (0.75-1.25), S (1.25-1.75), or G2 (1.75-2.5) phase cells. The percentage of cells within each phase of the cell cycle was determined for each treatment condition. The three sets of Hoechst-stained cells corresponding to the three separate DNA foci stains were treated as three independent analyses.

[4] = system: LN229 MGMT+/−, MMR+/− cells; assay: Micronuclei analysis; type: cell-based, human; conditions: 20 μM, 48 h
Description: Micronuclei Analysis. An automated image analysis pipeline was developed by YCMD using InCell Analyzer software to quantify micronuclei formation. Nuclei and micronuclei were segmented based on Hoechst nucleic acid dye staining channel. A perinuclear margin was applied around the nuclei to approximate the extent of the cytoplasm and identify micronuclei associated with the parent nucleus. Cells with nuclei associated with at least 1 micronucleus were considered positive.

[5] = system: LN229 MGMT−/MMR+ and LN229 MGMT−/MMR− (or MGMT−/MSH6−) flank tumors; assay: Murine flank tumor models; type: in vivo; conditions: for median OS: Kaplan-Meier
Experimental: Mouse Protocols for Flank Studies. A mouse tumor model was established by subcutaneously implanting human LN229 (MGMT−/MMR+) or LN229 (MGMT−/MMR−) cells. Cells were cultured as a monolayer in DMEM+10% FBS (Thermo Fisher) at 37° C. in a humidified atmosphere with 5% CO2 and passaged between one and three days prior to implantation and media was replaced every 2-3 days as needed to maintain cell viability. Cells were not allowed to exceed 80% confluency. On the day of implantation, cells were trypsinized, washed with complete media and pelleted by centrifugation at 1200 rpm for 5 minutes. The supernatant was decanted, and cells were washed three times with sterile PBS and pelleted by centrifugation. During the final centrifugation, viability was determined using trypan blue exclusion. Cells were resuspended in sterile PBS and diluted 1:1 in Matrigel (Corning, Cat #47743-716) for a final concentration of 5×10^6 cells/100 μL. 5 million cells were injected into the flank of female nude mice (Envigo, Hsd:Athymic Nude-Foxn1^nu, 3-4 weeks age, 15 g). Once tumors reached a minimum volume of 100 mm^3, mice were randomized and administered either KL-50 (4a; 5 mg/kg MWF×3 weeks), TMZ (1a; 5 mg/kg MWF×3 weeks), or vehicle (10% cyclodextrin) by oral gavage. Caliper measurements were obtained during the dosing period and at least two weeks following treatment. Mice were euthanized if body weight loss exceeded 20% or if tumor volume increased to greater than 2000 mm^3. Kaplan-Meier analysis was used to evaluate survival rate based on death or removal from study.
In a second study, mice were randomized and administered either KL-50 (4a) or vehicle (10% cyclodextrin) by oral gavage or intraperitoneal injection on either M-F×1 or MWF×3 cycles at 5, 15, or 25 mgs/kg. Caliper measurements were obtained during the dosing period and at least two weeks following treatment. Mice were euthanized if body weight loss exceeded 20% or if tumor volume increased to greater than 2000 mm^3.
The third study involved MGMT−/MMR+ and MGMT−/MSH6− (shMSH6) LN229 cells. Mice tumors were allowed to grow to a larger average starting volume of ˜350 mm^3 before they were randomized and administered either KL-50 (4a; 25 mg/kg MWF×3 weeks) or vehicle (10% cyclodextrin) by oral gavage. Caliper measurements were obtained during the dosing period and at least two weeks following treatment. Mice were euthanized if body weight loss exceeded 20% or if tumor volume increased to greater than 3000 mm^3.

[6] = system: LN229 MGMT+/−, MMR+/− cells; assay: Clonogenic cell survival assay; conditions: cell status given in the value
Experimental: Cells were trypsinized, washed, counted, and diluted in a medium containing various concentrations of drug. They were then immediately seeded in six-well plates in triplicate at three-fold dilutions, ranging from 9000 to 37 cells per well. Depending on colony size, these plates were kept in the incubator for 10 to 14 days. After incubation, colonies were washed in phosphate-buffered saline (PBS), stained with crystal violet, counted, and quantified.

[7] = LN229 MGMT−/MMR− flank tumor-bearing mice, 5 mg/kg P.O. MWF×3 weeks

Compound | cells survived (fraction) [1] | crosslinked genomic DNA (in words) [2] | cell cycle arrest (in words) [3] | micronuclei formation (in words) [4] | tumor growth, MGMT−/MMR+ flank tumors (in words) ([5]; 5 mg/kg P.O. MWF×3 weeks) | tumor growth, MGMT−/MMR− flank tumors (in words) ([5]; 5 mg/kg P.O. MWF×3 weeks) | increase in median OS vs TMZ [5, 7] | median OS [5, 7] | body weight (in words) ([5]; LN229 flank tumor experiments, 5 mg/kg P.O. MWF×3 weeks) | efficacy and toxicity over regimens (in words) ([5]; MGMT−/MMR+ and MGMT−/MMR− flank tumors, 5, 15, 25 mg/kg, MWF×3 weeks or M-F×1 week, PO or IP) | growth of large tumors (in words) ([5]; ~350-400 mm^3 MGMT−/MMR+ and MGMT−/MSH6− tumors, 25 mg/kg PO MWF×3 weeks) | clonogenic survival (in words) [6] | cells survived [1]
NC(=O)c1ncn2c(=O)n(CCF)nnc12 [KL-50, 3-(2-fluoroethyl)-4-oxo-3H,4H-imidazo[4,3-d][1,2,3,5]tetrazine-8-carboxamide] | less than 10^−4 | presence of crosslinked DNA | increasing G2 arrest on progression from 24 to 48 h in MGMT−/MMR+ cells; also recorded: attenuated G2 arrest in MGMT−/MMR− cells; also recorded: moderate G2 arrest in MGMT+/MMR+ cells | significant increase in micronuclei was observed at 48 h | statistically non-inferior to TMZ (1a) | potently suppressed tumor growth | greater than 5 week | greater than 15 weeks | no significant changes in body weight | effective and non-toxic; also recorded: equal efficacy with no observable increases in toxicity | potently suppressed the growth | robust antitumor activity in MGMT− cells, independent of MMR status; also recorded: minimal toxicity to MGMT+ cells at doses up to at least 200 μM | 
Cn1nnc2c(C(N)=O)ncn2c1=O [TMZ, temozolomide, reference compound] |  | no evidence of ICL induction | This effect in MGMT−/MMR− cells was absent; also recorded: moderate G2 arrest in MGMT+/MMR+ cells | smaller increases in G1-phase foci and micronuclei formation at 48 h in MGMT−/MMR+ cells; also recorded: did not observe foci induction or micronuclei formation in MGMT−/MMR− cells | suppressed tumor growth | no efficacy |  | 10 weeks |  |  |  | negligible activity in MGMT+LN229 cells, irrespective of MMR status; also recorded: robust tumor cell killing in MGMT−, MMR+ cells that was abolished in isogenic cells lacking MMR | about 100%
